According to paper PMC11062894, “Protein-based bandpass filters for controlling cellular signaling with chemical inputs” (Nature Chemical Biology, 2023):

System: GEMS receptors with CBPvene (Bcl2–LD3 and Bcl2high variants), STAT3-driven SEAP in HEK293T cells
Experiment: GEMS SEAP reporter assay, CBPvene (Bcl2high, LD3-v and Bcl2-v variants) with venetoclax
Type: cell-based
[1] = Supp Fig 10a, Bcl2-v6, venetoclax 1000 nM
[2] = Supp Fig 10a, Bcl2-v6, venetoclax 3160 nM
[3] = Supp Fig 10a, Bcl2-v6, venetoclax 10000 nM
[4] = Supp Fig 10a, Bcl2, venetoclax 316 nM
[5] = Supp Fig 10a, Bcl2, venetoclax 1000 nM
[6] = Supp Fig 10a, Bcl2, venetoclax 3160 nM
[7] = Supp Fig 10a, Bcl2, venetoclax 10000 nM
[8] = Supp Fig 10b, Bcl2-v1, venetoclax 1 nM
[9] = Supp Fig 10b, Bcl2-v1, venetoclax 3.16 nM
[10] = Supp Fig 10b, Bcl2-v1, venetoclax 10 nM
[11] = Supp Fig 10b, Bcl2-v1, venetoclax 31.6 nM
[12] = Supp Fig 10b, Bcl2-v1, venetoclax 100 nM
[13] = Supp Fig 10b, Bcl2-v1, venetoclax 316 nM
[14] = Supp Fig 10b, Bcl2-v1, venetoclax 1000 nM
[15] = Supp Fig 10b, Bcl2-v1, venetoclax 3160 nM
[16] = Supp Fig 10b, Bcl2-v1, venetoclax 10000 nM
[17] = Supp Fig 10b, Bcl2-v2, venetoclax 1 nM
[18] = Supp Fig 10b, Bcl2-v2, venetoclax 3.16 nM
[19] = Supp Fig 10b, Bcl2-v2, venetoclax 10 nM
[20] = Supp Fig 10b, Bcl2-v2, venetoclax 31.6 nM
[21] = Supp Fig 10b, Bcl2-v2, venetoclax 100 nM
[22] = Supp Fig 10b, Bcl2-v2, venetoclax 316 nM
[23] = Supp Fig 10b, Bcl2-v2, venetoclax 1000 nM
[24] = Supp Fig 10b, Bcl2-v3, venetoclax 1 nM
[25] = Supp Fig 10b, Bcl2-v3, venetoclax 3.16 nM
[26] = Supp Fig 10b, Bcl2-v3, venetoclax 10 nM
[27] = Supp Fig 10b, Bcl2-v3, venetoclax 31.6 nM
[28] = Supp Fig 10b, Bcl2-v3, venetoclax 100 nM
[29] = Supp Fig 10b, Bcl2-v3, venetoclax 316 nM
[30] = Supp Fig 10b, Bcl2-v3, venetoclax 1000 nM
[31] = Supp Fig 10b, Bcl2-v3, venetoclax 3160 nM
[32] = Supp Fig 10b, Bcl2-v3, venetoclax 10000 nM
[33] = Supp Fig 10b, Bcl2-v4, venetoclax 1 nM
[34] = Supp Fig 10b, Bcl2-v4, venetoclax 3.16 nM
[35] = Supp Fig 10b, Bcl2-v4, venetoclax 10 nM
[36] = Supp Fig 10b, Bcl2-v4, venetoclax 31.6 nM

**Q.** Which SEAP [1] does the source give for `CC1(C)CCC(CN2CCN(c3ccc(C(=O)NS(=O)(=O)c4ccc(NCC5CCOCC5)c([N+](=O)[O-])c4)c(Oc4cnc5[nH]ccc5c4)c3)CC2)=C(c2ccc(Cl)cc2)C1` [Venetoclax] here?
**A.** The SEAP was 19.2478.

**Q.** And the “SEAP normalized (max=100)” value [1]?
**A.** The value was 45.9867.

**Q.** What about the SEAP [2] of the same compound?
**A.** Its SEAP is 13.59.

**Q.** And the “SEAP normalized (max=100)” value [2]?
**A.** Its value is 32.4691.

**Q.** And the SEAP [3]?
**A.** The SEAP was 7.797.

**Q.** What about the “SEAP normalized (max=100)” value [3] of the same compound?
**A.** The value was 18.6277.

**Q.** What about the SEAP [4] of the same compound?
**A.** Its SEAP is 206.027.

**Q.** What about the “SEAP normalized (max=100)” value [4] of the same compound?
**A.** Its value is 100.

**Q.** And the SEAP [5]?
**A.** The SEAP was 118.152.

**Q.** What about the “SEAP normalized (max=100)” value [5] of the same compound?
**A.** Its value is 57.3479.

**Q.** And the SEAP [6]?
**A.** Its SEAP is 9.9385.

**Q.** And the “SEAP normalized (max=100)” value [6]?
**A.** The value was 4.824.

**Q.** And the SEAP [7]?
**A.** The SEAP was 6.696.

**Q.** What about the “SEAP normalized (max=100)” value [7] of the same compound?
**A.** The value was 3.25.

**Q.** What about the SEAP [8] of the same compound?
**A.** Its SEAP is 44.2279.

**Q.** What about the “SEAP normalized (max=100)” value [8] of the same compound?
**A.** Its value is 81.6306.

**Q.** And the SEAP [9]?
**A.** The SEAP was 50.6217.

**Q.** What about the “SEAP normalized (max=100)” value [9] of the same compound?
**A.** Its value is 93.4314.

**Q.** And the SEAP [10]?
**A.** Its SEAP is 46.5279.

**Q.** And the “SEAP normalized (max=100)” value [10]?
**A.** The value was 85.8756.

**Q.** And the SEAP [11]?
**A.** Its SEAP is 52.0969.

**Q.** What about the “SEAP normalized (max=100)” value [11] of the same compound?
**A.** Its value is 96.1542.

**Q.** What about the SEAP [12] of the same compound?
**A.** The SEAP was 54.1806.

**Q.** And the “SEAP normalized (max=100)” value [12]?
**A.** The value was 100.

**Q.** And the SEAP [13]?
**A.** Its SEAP is 42.1946.

**Q.** What about the “SEAP normalized (max=100)” value [13] of the same compound?
**A.** Its value is 77.8778.

**Q.** What about the SEAP [14] of the same compound?
**A.** The SEAP was 16.2179.

**Q.** And the “SEAP normalized (max=100)” value [14]?
**A.** The value was 29.933.

**Q.** And the SEAP [15]?
**A.** The SEAP was 5.677.

**Q.** And the “SEAP normalized (max=100)” value [15]?
**A.** The value was 10.4785.

**Q.** And the SEAP [16]?
**A.** Its SEAP is 3.434.

**Q.** What about the “SEAP normalized (max=100)” value [16] of the same compound?
**A.** The value was 6.3381.

**Q.** What about the SEAP [17] of the same compound?
**A.** The SEAP was 36.2682.

**Q.** What about the “SEAP normalized (max=100)” value [17] of the same compound?
**A.** Its value is 14.0118.

**Q.** And the SEAP [18]?
**A.** The SEAP was 38.2081.

**Q.** And the “SEAP normalized (max=100)” value [18]?
**A.** The value was 14.7612.

**Q.** What about the SEAP [19] of the same compound?
**A.** Its SEAP is 49.7513.

**Q.** What about the “SEAP normalized (max=100)” value [19] of the same compound?
**A.** Its value is 19.2208.

**Q.** What about the SEAP [20] of the same compound?
**A.** Its SEAP is 115.969.

**Q.** What about the “SEAP normalized (max=100)” value [20] of the same compound?
**A.** Its value is 44.8031.

**Q.** What about the SEAP [21] of the same compound?
**A.** Its SEAP is 258.841.

**Q.** What about the “SEAP normalized (max=100)” value [21] of the same compound?
**A.** Its value is 100.

**Q.** What about the SEAP [22] of the same compound?
**A.** The SEAP was 180.703.

**Q.** And the “SEAP normalized (max=100)” value [22]?
**A.** The value was 69.8126.

**Q.** What about the SEAP [23] of the same compound?
**A.** The SEAP was 50.1494.

**Q.** What about the “SEAP normalized (max=100)” value [23] of the same compound?
**A.** Its value is 19.3746.

**Q.** What about the SEAP [24] of the same compound?
**A.** Its SEAP is 40.7727.

**Q.** And the “SEAP normalized (max=100)” value [24]?
**A.** The value was 77.7639.

**Q.** What about the SEAP [25] of the same compound?
**A.** The SEAP was 41.3533.

**Q.** What about the “SEAP normalized (max=100)” value [25] of the same compound?
**A.** The value was 78.8713.

**Q.** And the SEAP [26]?
**A.** The SEAP was 40.3779.

**Q.** What about the “SEAP normalized (max=100)” value [26] of the same compound?
**A.** Its value is 77.0109.

**Q.** What about the SEAP [27] of the same compound?
**A.** Its SEAP is 52.4314.

**Q.** And the “SEAP normalized (max=100)” value [27]?
**A.** Its value is 100.

**Q.** What about the SEAP [28] of the same compound?
**A.** The SEAP was 43.8328.

**Q.** And the “SEAP normalized (max=100)” value [28]?
**A.** Its value is 83.6002.

**Q.** What about the SEAP [29] of the same compound?
**A.** Its SEAP is 28.8093.

**Q.** What about the “SEAP normalized (max=100)” value [29] of the same compound?
**A.** The value was 54.9466.

**Q.** What about the SEAP [30] of the same compound?
**A.** Its SEAP is 14.8804.

**Q.** And the “SEAP normalized (max=100)” value [30]?
**A.** Its value is 28.3807.

**Q.** And the SEAP [31]?
**A.** The SEAP was 13.0836.

**Q.** And the “SEAP normalized (max=100)” value [31]?
**A.** The value was 24.9537.

**Q.** And the SEAP [32]?
**A.** The SEAP was 6.8.

**Q.** What about the “SEAP normalized (max=100)” value [32] of the same compound?
**A.** The value was 12.9702.

**Q.** And the SEAP [33]?
**A.** Its SEAP is 29.6608.

**Q.** And the “SEAP normalized (max=100)” value [33]?
**A.** Its value is 89.6354.

**Q.** What about the SEAP [34] of the same compound?
**A.** The SEAP was 26.3749.

**Q.** What about the “SEAP normalized (max=100)” value [34] of the same compound?
**A.** Its value is 79.7051.

**Q.** What about the SEAP [35] of the same compound?
**A.** Its SEAP is 26.5882.

**Q.** And the “SEAP normalized (max=100)” value [35]?
**A.** The value was 80.3497.

**Q.** What about the SEAP [36] of the same compound?
**A.** Its SEAP is 28.0379.

**Q.** And the “SEAP normalized (max=100)” value [36]?
**A.** Its value is 84.7308.

**Q.** What about the SEAP (Supp Fig 10b, Bcl2-v4, venetoclax 100 nM) of the same compound?
**A.** The SEAP was 26.0079.
